Data as given in paper PMC6961122 (Bioorganic & Medicinal Chemistry, 2020).
Read-outs that look alike come from different tables or passages of the source.

Columns and labels:
[1] = tested on: G317 patient-derived glioma cells; assay: Growth inhibition (GI50, PrestoBlue, 5 d) in patient-derived glioma cells G317; format: cell-based, human; conditions: Homo sapiens, Glioma cell, 120 h, 5 d treatment, growth related to t=0 and DMSO, extrapolated from sigmoidal dose-response curve, read-out: GI50 (50% of growth inhibition) in G317
Description: Cells were treated with each inhibitor at concentrations ranging from 1 to 10,000 nM and PrestoBlue assay used at day 5 to detect viability. […] Data are means ± SEM of 3 independent experiments in triplicates.
(§1) U87 and T98 cells (ATCC) were cultured in DMEM (Gibco), supplemented with 10% (v/v) FBS (Gibco) and 2 mM L-Glutamine (Gibco) in a standard incubator (95% humidity, 5% CO2), and subcultured twice per week through trypsinization. G317 patient-derived glioma cells were established by the Glioma Cellular Genetics Resource (gcgr.org.uk) funded by Cancer Research UK. Ethics approval for use of patient-derived cells and early access confirmation to reagents from the Glioma Cellular Genetics Resource assured that all ethical issues according to UK legislation are fulfilled. G317 were cultured in DMEM/HAMS-F12 (Sigma) supplemented with 1.5 g L^−1 D-(+)-Glucose (Sigma), MEM non-essential aminoacids (Gibco), 0.015% (w/v) Penicillin-Streptomycin (Gibco), 0.012% (w/v) BSA (Gibco), 0.1 mM β-mercaptoethanol (Gibco), B27 (Gibco) and N2 supplements (Gibco). Cells were detached using accutase solution (Sigma) and subcultured once per week. Before adding to the cells, medium was supplemented with 10 ng ml^−1 mouse EGF (Preprotech), 10 ng ml^−1 human FGF (Preprotech), and 1 µg ml^−1 Laminin (Sigma).
(§2) 1 × 10^3 U87 cells/well, 5 × 10^2 T98 cells/well, 1 × 10^4 G317 cells/well, 1 × 10^4 HBVP cells/well and 1 × 10^4 bEnd3 cells/well were seeded in 96-well plates. After 48 h in culture, cells were treated with the inhibitors for 5 d. For GI50 determination, the viability of a triplicate sample of each experiment before treatment was measured with the PrestoBlue Reagent (Invitrogen), to establish a basepoint 0% of growth. […] ZIP Synergy scores were obtained with Synergy finder.[22] Viability percentage, EC50 and GI50 values were obtained using GraphPad Prism version 8.0.0 for Windows, GraphPad Software, San Diego, California USA, www.graphpad.com.
Table S2 . GI 50 values (nM) calculated for eCF309 , eCF311 , eCF312 , eCF324 , eCF325 and controls
Cells were treated with 10, 3, 1 µM,
300, 100, 30, 10, 3, 1, 0 nM of each inhibitor during 5 d. Cell growth (PrestoBlue) was related to t=0 (before
drug treatment), and GI 50 values were extrapolated from their corresponding sigmoidal dose-response curve

G317 spheroids = assay: 3D spheroids assay, G317 spheroid area; format: cell-based, human; conditions: pre-formed spheroids; 0.01–10 µM for 8 days
Description: To test the compounds under conditions that better represent the tumour microenvironment, G317 cells were cultured in 3D and pre-formed spheroids treated with eCF309, eCF324 and the positive controls at a range of concentrations (0.01–10 µM) for 8 days.
Fig. 6 (a) Images of G317 spheroids on day 10. Spheroids were treated with 10 μM of each inhibitor during 8 days, images were acquired using ImageXpress. Scale bar = 100 μm. (b) Area of G317 patient derived spheroids at day 10. Spheroid area was calculated with a custom pipeline on CellProfiler. Data are mean ± SEM of 6 independent spheroids from two different cultures, ***P < 0.001, **P < 0.01 compared to DMSO controls (two-way ANOVA, Tukey post hoc test).
4 × 10^3 G317 cells were seeded in an ultra-low attachment round bottom 96-well plate, centrifuged at 1000g, 4 °C for 10 min and allowed to form spheroids for 2 days. Spheroids were then incubated with the inhibitors at 4 concentrations ranging from 10 nM to 10 µM. Spheroids were imaged at day 10 using ImageXpress (Molecular Devices LLC) and processed with ImageJ.[25] Spheroid area was calculated with a custom pipeline on CellProfiler.[26]

U87 cells [2] = assay: Cell viability assay (PrestoBlue, 5 d) in U87 glioma cells; format: cell-based; conditions: Homo sapiens, U-87 MG, 120 h, library screen, 5 d treatment, mean of three independent experiments in triplicates, read-out: EC50 U87 ± SEM
Description: (§3) The antiproliferative activity of a total of 100 compounds was tested against U87 and T98 glioma cell lines, using TMZ[3] and the Topoisomerase I inhibitor SN-38[18] as positive controls. Cells were treated with the library members for 5 d at three different concentrations (3, 30 and 300 µM) and cell viability determined using the PrestoBlue reagent. Half-maximal effective concentration (EC50) values were calculated from the corresponding dose-response curves and plotted in Fig. 2a as a heatmap to facilitate data analysis, with black meaning no activity and dark to light green to yellow transitions indicating decreasing EC50 values (=increasing potencies). Table 1 of the Suppl. Data contains the corresponding EC50 values ± SEM.
(§4) INK128 and SN-38 were used as positive controls. […] Structurally, these derivatives differed in the size of the alkyl group of the N1 position and the presence or absence of an oxygen atom in that moiety (see Suppl. Data).
as §1, §2

T98 cells [3] = assay: Cell viability assay (PrestoBlue, 5 d) in T98 glioma cells; format: cell-based; conditions: Homo sapiens, T98, 120 h, library screen, 5 d treatment, mean of three independent experiments in triplicates, read-out: EC50 T98 ± SEM
Description: as §3, §4, §1, §2

U87 cells [4] = assay: Cell viability assay (PrestoBlue, 5 d) in U87 glioma cells; format: cell-based; conditions: Homo sapiens, U-87 MG, 120 h; repeat for most potent hits; 7-point half-log dose-response 1 to 1,000 nM; PrestoBlue day 5
T98 cells [5] = assay: Cell viability assay (PrestoBlue, 5 d) in T98 glioma cells; format: cell-based; conditions: Homo sapiens, T98, 120 h; repeat for most potent hits; 7-point half-log dose-response 1 to 1,000 nM; PrestoBlue day 5
mTOR = tested on: mTOR; parameters: method as in earlier work; conditions: recombinant kinase; previously obtained kinase profiling data; cited from earlier work
PI3Kα = tested on: PI3Kα; parameters: method as in earlier work; conditions: recombinant kinase; previously obtained kinase profiling data; cited from earlier work

Structure (SMILES) | GI50 [1] [nM] | reduction of G317 spheroid size (area at day 10) (G317 spheroids) | EC50 (U87 cells [2]) [nM] | EC50 (T98 cells [3]) [nM] | EC50 (U87 cells [4]) [nM] | EC50 (T98 cells [5]) [nM] | IC50 (mTOR) [nM] | IC50 (PI3Kα) [nM]
CC(C)n1nc(-c2ccc3oc(N)nc3c2)c2c(N)ncnc21 [INK128, sapanisertib, reference compound] | 9.3 | most potent antiproliferative activities |  |  |  |  |  | 
Nc1nc2cc(-c3nn(CC4CCCC4)c4ncnc(N)c34)ccc2o1 [eCF324] | 7.2 | most potent antiproliferative activities | 16 ± 3 | 11 ± 3 | 13 | 10 | 1.8 | 3.5
